Test results taken from patent publication US20190029257A1, “APPLICATION FOR HERBICIDE-TOLERANT PROTEIN” (BEIJING DABEINONG TECHNOLOGY GROUP CO., LTD., priority 2016, published 2019).

Tests used:
Format in all cases: in vivo
[1] = tested on: wild-type soybean plants (CK1); experiment: Glyphosate tolerance of soybean plants (herbicide damage rate); conditions: 840 g ae/ha, 1-fold field concentration; 14 DAT
Text: (§1) The herbicide tolerance effects of Gm cytoplasmic ALT-1-01 soybean plants, Gm chloroplastic ALT-1-01 soybean plants, Gm cytoplasmic ALT-2-01 soybean plants, Gm chloroplastic ALT-2-01 soybean plants, Gm cytoplasmic ALT-3-01 soybean plants, Gm chloroplastic ALT-3-01 soybean plants and wild-type soybean plants on glyphosate were detected (at seedling stage), respectively.
(§2) 2 strains from Gm cytoplasmic ALT-1-01 soybean plants, Gm chloroplastic ALT-1-01 soybean plants, Gm cytoplasmic ALT-2-01 soybean plants, Gm chloroplastic ALT-2-01 soybean plants, Gm cytoplasmic ALT-3-01 soybean plants, Gm chloroplastic ALT-3-01 soybean plants and wild-type soybean plants were respectively taken each, and 10-15 plants were selected from each strain and tested. The plants above were sprayed with glyphosate (840 g ae/ha, 1-fold field concentration) and a blank solvent (water). The herbicide damage rate was measured for each plant according to the phytotoxicity symptoms 14 days after spraying (14 DAT): herbicide damage rate (%)=Σ(number of damaged plants at the same level×level number)/(total number of plants×highest level).

[2] = tested on: Gm cytoplasmic ALT-3-01 soybean plants; experiment: as above; conditions: 840 g ae/ha, 1-fold field concentration; 14 DAT
Text: as §1, §2

[3] = tested on: Gm cytoplasmic ALT-2-01 soybean plants; experiment: as above; conditions: 840 g ae/ha, 1-fold field concentration; 14 DAT
Text: as §1, §2

[4] = tested on: Gm chloroplastic ALT-3-01 soybean plants; experiment: as above; conditions: 840 g ae/ha, 1-fold field concentration; 14 DAT
Text: as §1, §2

[5] = tested on: Gm chloroplastic ALT-1-01 soybean plants; experiment: as above; conditions: 840 g ae/ha, 1-fold field concentration; 14 DAT
Text: as §1, §2

[6] = tested on: Gm cytoplasmic ALT-1-01 soybean plants; experiment: as above; conditions: 840 g ae/ha, 1-fold field concentration; 14 DAT
Text: as §1, §2

[7] = tested on: Gm chloroplastic ALT-2-01 soybean plants; experiment: as above; conditions: 840 g ae/ha, 1-fold field concentration; 14 DAT
Text: as §1, §2

[8] = tested on: wild-type Arabidopsis thaliana plants; experiment: Herbicide tolerance of Arabidopsis thaliana plants (spray, resistance classes counted); conditions: 10 g ai/ha (1x Iod.); number of plants 14 days after spraying; Total 29
Text: (§3) T1 transformants were initially selected from the background of untransformed seeds using a glufosinate selection scheme. About 40000 T1 seeds were screened, and 380 T1 positive transformants (PAT gene) were identified with a transformation efficiency of about 0.95%. The plants that were transformed with the recombinant expression vector DBN100632 were Arabidopsis thaliana plants having an ALT-1-01 nucleotide sequence located in the cytoplasm introduced (At cytoplasmic ALT-1-01), and the plants that were transformed with the recombinant expression vector DBN100631 were Arabidopsis thaliana plants having an ALT-1-01 nucleotide sequence located in the chloroplast introduced (At chloroplastic ALT-1-01); the plants that were transformed with the recombinant expression vector DBN100634 were Arabidopsis thaliana plants having an ALT-2-01 nucleotide sequence located in the cytoplasm introduced (At cytoplasmic ALT-2-01), and the plants that were transformed with the recombinant expression vector DBN100633 were Arabidopsis thaliana plants having an ALT-2-01 nucleotide sequence located in the chloroplast introduced (At chloroplastic ALT-2-01); and the plants that were transformed with the recombinant expression vector DBN100636 were Arabidopsis thaliana plants having an ALT-3-01 nucleotide sequence located in the cytoplasm introduced (At cytoplasmic ALT-3-01), and the plants that were transformed with the recombinant expression vector DBN100635 were Arabidopsis thaliana plants having an ALT-3-01 nucleotide sequence located in the chloroplast introduced (At chloroplastic ALT-3-01). The herbicide tolerance effects of At cytoplasmic ALT-1-01 T1 plants, At chloroplastic ALT-1-01 T1 plants, At cytoplasmic ALT-2-01 T1 plants, At chloroplastic ALT-2-01 T1 plants, At cytoplasmic ALT-3-01 T1 plants, At chloroplastic ALT-3-01 T1 plants and wild-type Arabidopsis thaliana plants on halosulfuron-methyl were detected (14 days after sowing), respectively.
(§4) At cytoplasmic ALT-1-01 T1 plants, At chloroplastic ALT-1-01 T1 plants, At cytoplasmic ALT-2-01 T1 plants, At chloroplastic ALT-2-01 T1 plants, At cytoplasmic ALT-3-01 T1 plants, At chloroplastic ALT-3-01 T1 plants and wild-type Arabidopsis thaliana plants were sprayed with halosulfuron-methyl (34 g ai/ha, 1-fold field concentration) and a blank solvent (water), respectively. Plants were counted for the resistance situations 14 days after spraying: those having a consistent growth status with the blank solvent (water) group after 14 days were classified as highly resistant plants, those having a bolting height less than ½ of that of the blank solvent (water) group after 14 days were classified as moderately resistant plants, those still not capable of bolting after 14 days were classified as poorly resistant plants, and those dead after 14 days were classified as non-resistant plants. Since each Arabidopsis thaliana T1 plant was an independent transformation event, a significant difference in individual T1 responses could be expected at a given dose.
At cytoplasmic ALT-1-01 T1 plants, At chloroplastic ALT-1-01 T1 plants, At cytoplasmic ALT-2-01 T1 plants, At chloroplastic ALT-2-01 T1 plants, At cytoplasmic ALT-3-01 T1 plants, At chloroplastic ALT-3-01 T1 plants and wild-type Arabidopsis thaliana plants in Example 4 were sprayed with iodosulfuron-methyl (10 g ai/ha, 1-fold field concentration), mesosulfuron (14 g ai/ha, 1-fold field concentration) and oxasulfuron (60 g ai/ha, 1-fold field concentration), respectively, in addition to halosulfuron-methyl (34 g ai/ha, 1-fold field concentration) and the blank solvent (water). […]

[9] = tested on: all the transformed Arabidopsis thaliana T1 plants (ALT-1, ALT-2 and ALT-3); experiment: Herbicide tolerance of Arabidopsis thaliana T1 plants; conditions: 1-fold field concentration; summary of Table 2
Text: as §4
At cytoplasmic ALT-1-01 T1 plants, At chloroplastic ALT-1-01 T1 plants, At cytoplasmic ALT-2-01 T1 plants, At chloroplastic ALT-2-01 T1 plants, At cytoplasmic ALT-3-01 T1 plants, At chloroplastic ALT-3-01 T1 plants and wild-type Arabidopsis thaliana plants in Example 4 were sprayed with iodosulfuron-methyl (10 g ai/ha, 1-fold field concentration), mesosulfuron (14 g ai/ha, 1-fold field concentration) and oxasulfuron (60 g ai/ha, 1-fold field concentration), respectively, in addition to halosulfuron-methyl (34 g ai/ha, 1-fold field concentration) and the blank solvent (water). Plants were counted for the resistance situation 14 days after spraying: those having a consistent growth status with the blank solvent (water) group after 14 days were classified as highly resistant plants, those having a bolting height less than ½ of that of the blank solvent (water) group after 14 days were classified as moderately resistant plants, those still not capable of bolting after 14 days were classified as poorly resistant plants, and those dead after 14 days were classified as non-resistant plants. Since each Arabidopsis thaliana T1 plant was an independent transformation event, a significant difference in individual T1 responses could be expected at a given dose.

[10] = tested on: At chloroplastic ALT-3-01 T1 plants; experiment: Herbicide tolerance of Arabidopsis thaliana T1 plants (spray, resistance classes counted); conditions: number of plants 14 days after spraying, Total 32
Text: as §3
as §4, with “At cytoplasmic ALT-1-01 T1 plants, At chloroplastic ALT-1-01 T1 plants, At cytoplasmic ALT-2-01 T1 plants, At chloroplastic ALT-2-01 T1 plants, At cytoplasmic ALT-3-01 T1 plants, At chloroplastic ALT-3-01 T1 plants and wild-type Arabidopsis thaliana plants were sprayed with halosulfuron-methyl (34 g ai/ha, 1-fold field concentration) and a blank solvent (water), respectively.” left out
(§5) […] Plants were counted for the resistance situation 14 days after spraying: those having a consistent growth status with the blank solvent (water) group after 14 days were classified as highly resistant plants, those having a bolting height less than ½ of that of the blank solvent (water) group after 14 days were classified as moderately resistant plants, those still not capable of bolting after 14 days were classified as poorly resistant plants, and those dead after 14 days were classified as non-resistant plants. Since each Arabidopsis thaliana T1 plant was an independent transformation event, a significant difference in individual T1 responses could be expected at a given dose.

[11] = tested on: At cytoplasmic ALT-2-01 T1 plants; experiment: as above; conditions: number of plants 14 days after spraying
Text: as §3
as §5, with “situations” for “situation”
as §5

[12] = tested on: At chloroplastic ALT-2-01 T1 plants; experiment: as above; conditions: number of plants 14 days after spraying
Text: as §3
as §5, with “situations” for “situation”
as §5

[13] = tested on: At cytoplasmic ALT-3-01 T1 plants; experiment: as above; conditions: number of plants 14 days after spraying, Total 30
Text: as §3
as §5, with “situations” for “situation”
as §5

[14] = tested on: At cytoplasmic ALT-1-01 T1 plants; experiment: as above; conditions: number of plants 14 days after spraying, Total 29
Text: as §3
as §5, with “situations” for “situation”
as §5

[15] = tested on: At chloroplastic ALT-1-01 T1 plants; experiment: as above; conditions: number of plants 14 days after spraying
Text: as §3
as §5, with “situations” for “situation”
as §5

[16] = 14 g ai/ha (1x Mes.), genotype cell prints only "At"

O=C(O)CNCP(=O)(O)O [glyphosate, N-phosphonomethylglycine]
glyphosate herbicide damage rate [1]: not less than 90% | glyphosate herbicide damage rate [2]: ~0% | glyphosate herbicide damage rate [3]: ~0% | glyphosate herbicide damage rate [4]: ~0% | glyphosate herbicide damage rate [5]: ~0% | glyphosate herbicide damage rate [6]: ~0% | glyphosate herbicide damage rate [7]: ~0%

COC(=O)c1ccc(I)cc1S(=O)(=O)NC(=O)Nc1nc(C)nc(OC)n1 [iodosulfuron-methyl]
Highly resistant [8]: 0 | Moderately resistant [8]: 0 | Non-resistant [8]: 29 | Poorly resistant [8]: 0 | ability of the transformed plants to degrade the herbicide [9]: did not exhibit the ability to degrade | degree of damage, transformed versus wild-type plants [9]: no difference | Highly resistant ([10]; 10 g ai/ha (1x Iod.)): 0 | Moderately resistant ([10]; 10 g ai/ha (1x Iod.)): 0 | Non-resistant ([10]; 10 g ai/ha (1x Iod.)): 32 | Poorly resistant ([10]; 10 g ai/ha (1x Iod.)): 0 | Highly resistant ([11]; 10 g ai/ha (1x Iod.), Total 30): 0 | Moderately resistant ([11]; 10 g ai/ha (1x Iod.), Total 30): 0 | Non-resistant ([11]; 10 g ai/ha (1x Iod.), Total 30): 30 | Poorly resistant ([11]; 10 g ai/ha (1x Iod.), Total 30): 0 | Highly resistant ([12]; 10 g ai/ha (1x Iod.), Total 31): 0 | Moderately resistant ([12]; 10 g ai/ha (1x Iod.), Total 31): 0 | Non-resistant ([12]; 10 g ai/ha (1x Iod.), Total 31): 31 | Poorly resistant ([12]; 10 g ai/ha (1x Iod.), Total 31): 0 | Highly resistant ([13]; 10 g ai/ha (1x Iod.)): 0 | Moderately resistant ([13]; 10 g ai/ha (1x Iod.)): 0 | Non-resistant ([13]; 10 g ai/ha (1x Iod.)): 30 | Poorly resistant ([13]; 10 g ai/ha (1x Iod.)): 0 | Highly resistant ([14]; 10 g ai/ha (1x Iod.)): 0 | Moderately resistant ([14]; 10 g ai/ha (1x Iod.)): 0 | Non-resistant ([14]; 10 g ai/ha (1x Iod.)): 29 | Poorly resistant ([14]; 10 g ai/ha (1x Iod.)): 0 | Highly resistant ([15]; 10 g ai/ha (1x Iod.), Total 30): 0 | Moderately resistant ([15]; 10 g ai/ha (1x Iod.), Total 30): 0 | Non-resistant ([15]; 10 g ai/ha (1x Iod.), Total 30): 30 | Poorly resistant ([15]; 10 g ai/ha (1x Iod.), Total 30): 0

COC(=O)c1ccc(CNS(C)(=O)=O)cc1S(=O)(=O)NC(=O)Nc1nc(OC)cc(OC)n1 [mesosulfuron]
ability of the transformed plants to degrade the herbicide [9]: did not exhibit the ability to degrade | degree of damage, transformed versus wild-type plants [9]: no difference | Highly resistant [10, 16]: 0 | Moderately resistant [10, 16]: 0 | Non-resistant [10, 16]: 32 | Poorly resistant [10, 16]: 0 | Highly resistant ([11]; 14 g ai/ha (1x Mes.), Total 32): 0 | Moderately resistant ([11]; 14 g ai/ha (1x Mes.), Total 32): 0 | Non-resistant ([11]; 14 g ai/ha (1x Mes.), Total 32): 32 | Poorly resistant ([11]; 14 g ai/ha (1x Mes.), Total 32): 0 | Highly resistant ([12]; 14 g ai/ha (1x Mes.), Total 30): 0 | Moderately resistant ([12]; 14 g ai/ha (1x Mes.), Total 30): 0 | Non-resistant ([12]; 14 g ai/ha (1x Mes.), Total 30): 30 | Poorly resistant ([12]; 14 g ai/ha (1x Mes.), Total 30): 0 | Highly resistant ([13]; 14 g ai/ha (1x Mes.)): 0 | Moderately resistant ([13]; 14 g ai/ha (1x Mes.)): 0 | Non-resistant ([13]; 14 g ai/ha (1x Mes.)): 30 | Poorly resistant ([13]; 14 g ai/ha (1x Mes.)): 0 | Highly resistant ([14]; 14 g ai/ha (1x Mes.)): 0 | Moderately resistant ([14]; 14 g ai/ha (1x Mes.)): 0 | Non-resistant ([14]; 14 g ai/ha (1x Mes.)): 29 | Poorly resistant ([14]; 14 g ai/ha (1x Mes.)): 0 | Highly resistant ([15]; 14 g ai/ha (1x Mes.), Total 32): 0 | Moderately resistant ([15]; 14 g ai/ha (1x Mes.), Total 32): 0 | Non-resistant ([15]; 14 g ai/ha (1x Mes.), Total 32): 32 | Poorly resistant ([15]; 14 g ai/ha (1x Mes.), Total 32): 0

Cc1cc(C)nc(NC(=O)NS(=O)(=O)c2ccccc2C(=O)OC2COC2)n1 [oxasulfuron]
ability of the transformed plants to degrade the herbicide [9]: did not exhibit the ability to degrade | degree of damage, transformed versus wild-type plants [9]: no difference
